Experimental data reported in patent US8206943B1, “Assay for PCSK9 inhibitors” (Schering Corporation, priority 2008, dated 2012).

How the values were obtained:
PCSK9 [1] = target: T1, PCSK9 (Homo sapiens, UniProt Q8NBP7); experiment: HPLC / chromatographic analysis of PCSK9 autoproteolysis (cis-cleavage) in the presence of inhibitors; type: biochemical; parameters: Pro-Cat-Domain Polypeptide; initiator Met (N); made in house; host or cells: E. coli BL-21(DE3)
Method: Unprocessed PCSK9 (18 μM for NanoStream experiment, 8 μM for BioRad Experion experiment) was incubated at 25° C. in 25 mM Hepes pH 7.5, 150 mM NaCl, 10% glycerol and 1 mM EDTA (4% DMSO may be added to uninhibited control assays when run in conjunction with assays that include inhibitors dissolved in DMSO). At the designated time points (t=0 minutes, 60 minutes and 240 minutes), aliquots from the 18 μM incubation were quenched by adding guanidine hydrochloride to a concentration of 6M, then the quenched reaction was applied (1 μl) to NanoStream Brio #4207007 (300 Å, C4) chromatography cassette. Following gradient elution, from the cassette, using 0.1% TFA in water (solvent A) and 0.085% TFA in acetonitrile (solvent B), the peaks were quantitated by absorbance at 214 nm.
Furthermore, a chromatographic analysis of PCSK9 autoproteolysis was performed in the presence of various inhibitors. This assay was used to determine the effect of the inhibitors Tris (2-carboxyethyl) phosphine (TCEP; a reducing agent) and tosyl-L-lysine chloromethyl ketone (TLCK) on the PCSK9 autoproteolysis reaction. In these assay, the ProCat peak is uncleaved PCSK9 whereas the Pro- and Cat-peaks indicate generation of the Pro- and Cat-domains, which indicates autoproteolytic cleavage by PCSK9. FIG. 5(a) sets forth the data in the assay wherein the Tris (2-carboxyethyl) phosphine inhibitor was assayed. […] In the control-A experiment, Tris (2-carboxyethyl) phosphine was added at t=zero minutes of a 6 hour incubation. Tris (2-carboxyethyl) phosphine is a disulfide reducing agent that is not oxidized by air.
In the control-B experiment set forth in FIG. 5(a), Tris (2-carboxyethyl) phosphine was added at the end of a 6 hour incubation. The appearance of the Pro- and Cat-domains in the control B assay indicate the occurrence of autoproteolysis.
FIG. 5(b) sets forth data wherein inhibition mediated by TCEP (Tris (2-carboxyethyl) phosphine) and TLCK (tosyl-L-lysine chloromethyl ketone) are compared, side-by-side, in an autoproteolysis assay. […] The inhibitors are added at time zero. TCEP was added at 5 mM to quench the reaction; this sample serves as the 100% inhibited control—Control A in FIG. 5. TLCK was added at a concentration of 77 μM.
An HPLC analysis was performed on unprocessed PCSK9. A sample containing 12 uM unprocessed PCSK9 in 25 mM Hepes buffer pH 7.5, 150 mM NaCl, 1 mM EDTA, 10% glycerol and 4.0% DMSO was incubated at 25° C. […] One microliter of the reaction mixture was analyzed directly by reversed phase-HPLC using Express-LC100, a micro fluidic chromatographic system from Eksigent. […] The flow rate was 12 uI per minute and the sample components were detected at 214 nm. The amount of ProCat polypeptide was calculated as % of sum of peak areas corresponding to Pro-, Cat- and ProCat domains. […]
Target sequence in this assay (Q8NBP7 with tags, fused parts or gaps): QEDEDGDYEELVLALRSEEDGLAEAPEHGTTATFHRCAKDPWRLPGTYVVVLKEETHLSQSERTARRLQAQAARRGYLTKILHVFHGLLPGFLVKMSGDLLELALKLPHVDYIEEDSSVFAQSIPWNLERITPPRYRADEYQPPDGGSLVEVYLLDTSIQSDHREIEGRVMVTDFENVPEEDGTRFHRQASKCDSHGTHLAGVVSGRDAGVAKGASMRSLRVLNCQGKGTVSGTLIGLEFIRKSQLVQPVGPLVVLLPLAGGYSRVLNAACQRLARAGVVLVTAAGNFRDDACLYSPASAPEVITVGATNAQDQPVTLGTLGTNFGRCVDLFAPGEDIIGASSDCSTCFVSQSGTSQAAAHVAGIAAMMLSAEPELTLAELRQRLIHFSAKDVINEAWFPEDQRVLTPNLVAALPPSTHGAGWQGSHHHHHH

PCSK9 [2] = target: T1, PCSK9; experiment: Cis-cleavage assay for PCSK9 using immuno-detection (ELISA of remaining FLAG-tag on HisSorb plate); type: biochemical; parameters: A DNA fragment corresponding to residues 31-454 of human PCSK9 (Pro-Cat domains) was made synthetically; made in house; host or cells: E. coli (pDest14 vector; expressed as for the first construct, BL-21(DE3)); settings: 100 uM, 30° C. for 4 hours
Method: This example describes an assay to monitor the cis-cleavage of human PCSK9 using immuno-detection methods. A construct of human PCSK9 was created to have an N-terminal FLAG-tag and a (His)6-tag on the C-terminus. After incubation, the reaction was quenched and the domains were disassociated with 4.0 M urea. The protein was transferred to and bound, via the His-tag, to a HisSorb plate (Qiagen; Valencia, Calif.; nickel-nitrilotriacetic acid (Ni-NTA) coated plate). The amount of cleavage was determined by measuring the remaining FLAG-tag using standard ELISA techniques. Using this method, the sensitivity of the assay was increased at least 1000-fold over gel-based techniques and the micro-titer format makes the assay compatible with high throughput screening methods.
Cloning and expression. A DNA fragment corresponding to residues 31-454 of human PCSK9 (Pro-Cat domains) was made synthetically (GeneScript Corp., Piscataway, N.J.). Additional bases were included to add a Not1 restriction site and a Shine-Dalgarno initiation sequence to the 5′-end. A GS-(His)6 tag followed by a Asc1 restriction site was added to the 3′-end. A Gateway vector of PCSK9 was produced as FLAG-Pro-Cat(454)-GS-(His)6 by restriction digestion/ligation into the pDest14 expression vector. Expression and purification of the protein was done as previously described with aliquots frozen at −80° C. […]
Target sequence in this assay (Q8NBP7 31-454): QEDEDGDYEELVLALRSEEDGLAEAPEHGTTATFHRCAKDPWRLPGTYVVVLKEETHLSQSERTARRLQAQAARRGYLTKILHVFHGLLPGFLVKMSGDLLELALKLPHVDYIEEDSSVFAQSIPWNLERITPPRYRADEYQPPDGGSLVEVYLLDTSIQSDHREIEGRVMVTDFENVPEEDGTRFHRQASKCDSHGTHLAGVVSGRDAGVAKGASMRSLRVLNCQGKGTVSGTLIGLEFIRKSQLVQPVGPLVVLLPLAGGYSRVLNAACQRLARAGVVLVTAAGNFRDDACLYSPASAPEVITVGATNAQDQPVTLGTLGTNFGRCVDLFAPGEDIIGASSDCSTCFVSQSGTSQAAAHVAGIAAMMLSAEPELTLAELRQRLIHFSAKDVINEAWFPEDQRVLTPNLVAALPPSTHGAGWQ

[3] = 77 μM, added at time zero, FIG. 5(b)

Row | Molecule | inhibition of cis-cleavage activity (PCSK9 [1]; 5 mM, added at t=zero minutes of a 6 hour incubation (control-A), FIG. 5(a)) | inhibition of cis-cleavage (negative control) (PCSK9 [2]) [%] | inhibition of cis-cleavage reaction (PCSK9 [1]; 77 uM, 6 hour incubation at 25° C., 12 uM unprocessed PCSK9) | Pro- and Cat-domains in comparison to Control-A (TCEP) (PCSK9 [1]; [3]) | ProCat peak (uncleaved PCSK9) in comparison to Control-A (TCEP) (PCSK9 [1]; [3])
1 | O=C(O)CCP(CCC(=O)O)CCC(=O)O [TCEP, Tris (2-carboxyethyl) phosphine] | complete inhibition |  |  |  | 
2 | tosyl-L-lysine chloromethyl ketone [TLCK] |  | 100 | significant inhibition | slight increase | small decrease
